In PubChem BioAssay (NCI):
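Cultured in 96-well plates, cells were exposed to test compound for 48 hours across five concentrations. GI50 marks 50% less growth. At the TGI there is no net growth.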

Key:
Experiment in all cases: growth of human tumour cells (NCI), 48 h
[1] = system: NCI-H460 lung
[2] = system: MDA-MB-231 breast
[3] = system: CCRF-CEM leukemia
[4] = system: SNB-19 CNS
[5] = system: NCI-H226 lung
[6] = system: A549 NSCLC
[7] = system: SF-295 CNS
[8] = system: MOLT-4 leukemia
[9] = system: RPMI-8226 leukemia
[10] = system: HL-60(TB) leukemia

Row | SMILES | GI50 [1] [nM] | TGI [1] [nM] | GI50 [2] [nM] | TGI [2] [nM] | GI50 [3] [nM] | TGI [3] [nM] | GI50 [4] [nM] | TGI [4] [nM] | GI50 [5] [nM] | TGI [5] [nM] | GI50 [6] [nM] | TGI [6] [nM] | GI50 [7] [nM] | TGI [7] [nM] | GI50 [8] [nM] | TGI [8] [nM] | GI50 [9] [nM] | TGI [9] [nM] | GI50 [10] [nM] | TGI [10] [nM]
1 | Cc1cc2c(-c3nc4ccccc4[nH]3)c(O)c(O)cc2c(O)c1-c1c(C)cc2c(-c3nc4ccccc4[nH]3)c(O)c(O)cc2c1O | 7.51 | 112 | 83.5 | > 38900 | 11.3 | > 50000 | 20.2 | 9620 | 56.3 | 827 | 11.7 | 9660 | 22.7 | 1580 | 19 | > 50000 | 32.3 | 22300 | 32.8 | > 50000
2 | O=C(Nc1ccc(Cl)c(Cl)c1)Nc1ccc(Cl)c([N+](=O)[O-])c1 | 888 | 3030 | 2930 | 7090 | 1120 | > 25000 | 1380 | 5290 | 1300 | 5540 | 1410 | 8270 | 688 | 2540 | 925 | > 25000 | 895 | 9470 | 947 | 14600
3 | C#Cc1cccc(NC(=O)Nc2ccccc2NC(=O)CCl)c1 | 16500 | 33900 | 16600 | 34600 | 20800 | > 82500 | 32000 | > 82500 | 16000 | 34100 | 25400 | > 82500 | 39400 | > 82500 | 25600 | > 82500 | 15200 | > 82500 | 25200 | > 82500
4 | COc1ccc(C(=O)c2cc3c(N)c(C(=O)Nc4cccc(Cl)c4)sc3nc2C)cc1 | 1120 | > 33300 | 2550 | > 33300 | 1200 | > 33300 | 1460 | > 33300 | 16000 | > 33300 | 1670 | > 33300 | 1080 | > 33300 | 1890 | > 33300 | 1190 | > 33300 | 1090 | > 33300
5 | CC[C@]1(O)C[C@@H]2CN(Cc3c([nH]c4ccccc34)[C@@](C(=O)OC)(c3cc4c(cc3OC)N(C)[C@H]3[C@@](O)(C(=O)OC)[C@H](OC(C)=O)[C@]5(CC)[C@@H]6C[C@@H]6CN6CC[C@]43[C@@H]65)C2)C1 | 109 | > 4380 | 76.1 | > 2610 | 36.9 | > 4380 | 106 | > 4380 | > 1440 | > 4380 | 234 | > 4380 | 137 | > 4380 | 48.4 | > 4380 | 37.2 | > 4380 | 15.9 | > 4380
6 | COc1ccc(C(=O)/C=C/c2ccc(Cl)cc2)cc1S(N)(=O)=O | 2580 | 6390 | 3480 | 11700 | 3350 | 9350 | 3100 | 10300 | 3660 | 14800 | 2690 | 8150 | 3040 | 10200 | 2930 | 9160 | 2610 | 6530 | 3080 | 8770
7 | CCc1cc(C(N)=O)ccc1-n1nc(C(C)C)c2c(-n3cnc(-c4cnn(C)c4)c3)ccnc21 | 566 | > 100000 | 3250 | > 100000 | 752 | > 100000 | 3300 | > 100000 | 3680 | > 100000 | 2180 | > 100000 | 992 | 10300 | 955 | > 100000 | 3760 | > 100000 | 1140 | > 100000
8 | O=C1CCC/C=C\C[C@H]2C=C(Cl)C(=O)/C2=C/C[C@H](CCCCC(F)(F)F)OC(=O)CCC/C=C\C[C@H]2C=C(Cl)C(=O)/C2=C/C[C@H](CCCCC(F)(F)F)O1 | 257 | 1030 | 194 | 504 | 178 | 884 | 353 | 1670 | 263 | 1230 | 429 | 2610 | 292 | 1190 | 240 | 1600 | 177 | 528 | 362 | 3600
9 | Cn1cc(-c2ccc3cc(-c4ccc(CC(=O)Nc5cc(C(C)(C)C)nn5C)cc4)cnc3c2)cn1 | 165 | > 100000 | 317 | > 100000 | 375 | > 100000 | 473 | > 100000 | 317 | > 100000 | 336 | > 100000 | 307 | > 100000 | 282 | > 100000 | 254 | 1780 | 314 | –
10 | O=C(Nc1nc2ncn(CCOC(=O)c3ccccc3)c2c(=O)[nH]1)c1ccccc1 | – | > 100000 | – | > 100000 | – | > 100000 | – | > 100000 | – | > 100000 | – | > 100000 | – | 54200 | – | > 100000 | – | > 100000 | – | > 24600
